The values below come from article PMC11997999, “Uncovering α-Selectivity for Liver X Receptor Agonists for Lipotoxic Cancer Therapies” (Journal of Medicinal Chemistry, 2025).

The subject of assay [1] is Akt1^Myr; Myc^OE HCC organoids. In words: Cell viability analysis in HCC organoids (CellTiter-Glo 3D). It counts as cell-based, murine. As to conditions: 5d, with 4 μM sorafenib. The source says:
Finally, we analyzed the efficacy of compound 40 in preclinical treatment studies in three-dimensional liver cancer organoid cultures. HCC organoids driven by myristoylated Akt1 and overexpressed Myc (Akt1^Myr; Myc^OE) were isolated from murine liver tumors and subjected to monotherapies of sorafenib, compound 40, or a combination thereof (Figure 7C). The therapeutic outcome was side-by-side compared with combinatorial therapies comprising the established agonists T0901317 (1) and GW3965 (2). […] Isolation of murine HCC organoid cultures was performed from liver tumors derived from C57BL/6 mice using established protocols.[26] The animal experiments were approved by committees of the regional authority of the state of Baden-Wuerttemberg (Regierungspraesidium Tuebingen, authorization number M15/18G) as appropriate. After digestion, the organoids were embedded in 100% Growth Factor Reduced (GFR) MatrigelTM (Corning) and cultured at 37 °C and 5% CO2 in HCC organoid medium supplemented with nicotinamide (10 mM), N-acetylcystein (1.25 mM), human HGF (50 ng/mL), human FGF-10 (100 ng/mL), human R-Spondin (0.5 μg/mL), forskolin (10 μM), A83- 01 (0.5 μM), murine Noggin (50 ng/mL), gastrin I (10 nM), human BMP-7 (25 ng/mL), human Wnt3a (100 ng/mL), B27 supplement (1×) and N2 supplement (1×). The cultures were split by mechanical dissociation every 3 to 4 days. […] Cell viability was determined after 5 days of treatment using the CellTiter-Glo 3D Cell Viability Assay Kit (Promega). Cell viability of Hep3B, AML12, and BNL CL.2 cells was determined after 5 days of treatment in white 96 well plates (Sarstedt) using the CellTiter-Glo 2.0 Cell Viability Assay Kit (Promega). […] The luminescence signal was measured using an […] M PLEX plate reader (Tecan) and the Tecan i-control software (v3.9.1). […]
On the technique in general: Cellular ATP, detected with luciferase, serves as a proxy for viable cell number.

In assay [2] the target is T1, LXRα (Homo sapiens, UniProt Q13133).
T1 construct: To measure the activity of the remaining isoform under treatment; endogenous in cells; host or cells: Hep3B (NR1H2 knockout, LXRE-GFP reporter)
T1 sequence (Q13133 1-447): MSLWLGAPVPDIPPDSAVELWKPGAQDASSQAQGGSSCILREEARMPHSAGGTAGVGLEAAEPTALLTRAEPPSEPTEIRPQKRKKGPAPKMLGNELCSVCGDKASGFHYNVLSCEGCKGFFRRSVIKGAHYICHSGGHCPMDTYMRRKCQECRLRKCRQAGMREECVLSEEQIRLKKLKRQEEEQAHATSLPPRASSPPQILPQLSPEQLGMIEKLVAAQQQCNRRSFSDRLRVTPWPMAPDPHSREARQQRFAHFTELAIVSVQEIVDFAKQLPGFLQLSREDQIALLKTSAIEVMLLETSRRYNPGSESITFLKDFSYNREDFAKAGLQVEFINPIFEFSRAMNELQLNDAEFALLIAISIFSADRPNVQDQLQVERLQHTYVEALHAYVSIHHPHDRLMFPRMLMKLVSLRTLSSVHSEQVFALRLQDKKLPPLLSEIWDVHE
As to the kind of experiment: LXRα-specific LXRE-GFP reporter assay in Hep3B cells (NR1H2 knockout). In kind it is cell-based. As to conditions: 48h of treatment, GFP by FACS.

The target in assay [3] is T2, LXRβ (Homo sapiens, UniProt P55055).
T2 construct: To measure the activity of the remaining isoform under treatment; endogenous in cells; host or cells: Hep3B (NR1H3 knockout, LXRE-GFP reporter)
T2 sequence (P55055 1-460): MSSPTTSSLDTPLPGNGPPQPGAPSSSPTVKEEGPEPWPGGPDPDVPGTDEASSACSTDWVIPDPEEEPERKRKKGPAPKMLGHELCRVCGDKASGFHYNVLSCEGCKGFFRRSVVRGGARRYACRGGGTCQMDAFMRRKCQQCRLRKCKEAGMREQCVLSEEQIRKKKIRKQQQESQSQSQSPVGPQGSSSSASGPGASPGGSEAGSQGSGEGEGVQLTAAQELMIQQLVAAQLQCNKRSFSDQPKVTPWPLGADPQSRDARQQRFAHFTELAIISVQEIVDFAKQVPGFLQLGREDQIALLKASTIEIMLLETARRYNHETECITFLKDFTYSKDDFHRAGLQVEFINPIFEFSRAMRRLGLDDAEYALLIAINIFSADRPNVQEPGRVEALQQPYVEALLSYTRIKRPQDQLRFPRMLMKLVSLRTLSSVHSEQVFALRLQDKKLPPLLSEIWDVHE
As to the kind of experiment: LXRβ-specific LXRE-GFP reporter assay in Hep3B cells (NR1H3 knockout). It counts as cell-based. The settings on record: 48h of treatment, GFP by FACS.

Assay [4] deals with T3, LXRα LBD (GST) (Homo sapiens, UniProt Q13133).
T3 construct: 5 nM LXRα LBD (GST); 10 nM LXRβ LBD (GST); purchased ThermoFisher Scientific PV4655
T3 sequence (Q13133 209-447 limits assumed): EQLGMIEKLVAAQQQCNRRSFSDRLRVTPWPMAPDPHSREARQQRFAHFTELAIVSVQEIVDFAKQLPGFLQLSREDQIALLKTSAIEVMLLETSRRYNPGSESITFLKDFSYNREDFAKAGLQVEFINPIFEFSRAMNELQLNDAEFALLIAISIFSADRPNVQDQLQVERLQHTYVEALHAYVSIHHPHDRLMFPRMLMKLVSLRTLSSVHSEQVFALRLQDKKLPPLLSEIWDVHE
In words: Time-resolved LXR FRET assay (LanthaScreen TR-FRET LXRα Coactivator Assay Kit). As to conditions: 5 nM LXRα LBD (GST), read after 6 h; R^2 of fit given; read-out: TR-FRET activity (EC50) LXRα. In kind it is biochemical. Here is the method: (§1) The biochemical TR-FRET assays were performed using the LanthaScreen TR-FRET LXRα Coactivator Assay Kit, goat (ThermoFisher Scientific, PV4655), and the LanthaScreen TR-FRET LXRβ assay kit, goat (ThermoFisher Scientific, PV4658), according to the manufacturer’s instructions using the following concentrations: 5 nM LXRα LBD (GST); 10 nM LXRβ LBD (GST); 500 nM fluorescein-TRAP220/DRIP-2; 200 nM fluorescein-D22; 10 nM Tb anti-GST antibody. The TR-FRET signals were measured after 6 h using a TECAN SPARK multimode microplate reader with the following settings: first excitation wavelength: 360 nm (bandwidth 35 nm), first emission wavelength: 485 nm (bandwidth 20 nm); second excitation wavelength: 360 nm (bandwidth 35 nm), second emission wavelength: 535 nm (bandwidth 25 nm); integration time: 200 μs; lag time: 100 μs; settle time: 0 ms.

The target of assay [5] is T4, LXRβ LBD (GST) (Homo sapiens, UniProt P55055).
T4 construct: 5 nM LXRα LBD (GST); 10 nM LXRβ LBD (GST); purchased ThermoFisher Scientific PV4658
T4 sequence (P55055 222-460 limits assumed): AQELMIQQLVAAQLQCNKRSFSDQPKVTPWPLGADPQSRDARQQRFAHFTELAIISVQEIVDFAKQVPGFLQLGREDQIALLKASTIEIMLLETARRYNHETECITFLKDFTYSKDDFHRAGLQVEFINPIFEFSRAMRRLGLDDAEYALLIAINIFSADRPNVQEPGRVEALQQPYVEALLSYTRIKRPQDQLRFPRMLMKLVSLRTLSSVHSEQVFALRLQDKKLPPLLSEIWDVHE
In words: Time-resolved LXR FRET assay (LanthaScreen TR-FRET LXRβ assay kit). It counts as biochemical. The settings on record: 10 nM LXRβ LBD (GST), read after 6 h; R^2 of fit given; read-out: TR-FRET activity (EC50) LXRβ. Here is the method:
as §1
On the technique in general: Time-resolved FRET reads energy transfer from a long-lived donor to a nearby acceptor.

The structures appear in SMILES notation.

For `O=S(=O)(c1ccccc1)N(CC(F)(F)F)c1ccc(C(O)(C(F)(F)F)C(F)(F)F)cc1` [T0901317 (1)], the “therapeutic efficacy (cell viability) in combination with sorafenib” value in assay [1] is given as “dose-dependent response”.
For `O=C(O)Cc1cccc(OCCCN(Cc2cccc(C(F)(F)F)c2Cl)CC(c2ccccc2)c2ccccc2)c1` [GW3965 (2), reference compound], the EC50 in assay [2] stood at 320 nM; in assay [3], 40 nM; in assay [4], 87 nM; in assay [5] it was 24 nM. The “therapeutic efficacy (cell viability) in combination with sorafenib” value in assay [1] is “dose-dependent response”.

The EC50 is the midpoint of the concentration-response curve.
